This assay concerns ischemic ulcers. The assay can be described thus: Case report: ischemic ulcers (peripheral vascular disease). Format: in vivo, human. The following applies: person, prior therapy before topical treatment. The text has this:
A person presents with chronic peripheral vascular disease and ischemic ulcers over the medial aspect of the hallux.

Take `CC(=O)CCCCn1c(=O)c2c(ncn2C)n(C)c1=O` [Trental]: the healing result was “failed to improve healing”.

(Values after patent publication US10881640B2, “Topical pharmaceutical compositions for treatment of pilonidal sinus wounds” (S.L.A. PHARMA AG, priority 2002, dated 2021).)
